# Test results as given in patent US7732429B2 (Trustees of Tufts College, priority 1994, dated 2010).
# Like-named read-outs stand apart in the source and are kept apart here.
# Assays:
# efflux protein = target: T1, efflux protein (Escherichia coli, UniProt P02980); assay: everted membrane vesicle assay, blocking activity of 13-S-derivatives; type: biochemical
# T1 sequence (P02980 1-401): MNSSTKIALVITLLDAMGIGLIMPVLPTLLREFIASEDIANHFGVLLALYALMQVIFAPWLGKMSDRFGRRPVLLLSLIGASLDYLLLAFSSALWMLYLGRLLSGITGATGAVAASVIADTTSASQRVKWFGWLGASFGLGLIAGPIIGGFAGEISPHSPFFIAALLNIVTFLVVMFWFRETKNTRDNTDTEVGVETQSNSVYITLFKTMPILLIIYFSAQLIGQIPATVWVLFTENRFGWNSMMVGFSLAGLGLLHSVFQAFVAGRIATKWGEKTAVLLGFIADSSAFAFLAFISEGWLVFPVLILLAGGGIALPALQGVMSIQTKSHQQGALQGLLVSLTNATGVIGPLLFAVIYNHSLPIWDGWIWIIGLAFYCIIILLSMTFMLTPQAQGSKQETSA
# [1] = tested on: E. faecalis Tc^s (ATCC9790r); assay: susceptibility testing MIC/MLC, drug alone; type: cell-based
# [2] = tested on: tetracycline resistant S. aureus; conditions: in combination with tetracycline
# [3] = tested on: E. coli Class B Tc^r (DI-209); type: cell-based; conditions: drug alone; for MLC: kills 99.9%
# [4] = tested on: E. coli Class A Tc^r (DI-299); type: cell-based; conditions: drug alone; for MLC: kills 99.9%
# [5] = tested on: E. faecalis Tc^r(M) (ATCC09790r/TelM); type: cell-based; conditions: drug alone; for MLC: kills 99.9%
# [6] = tested on: E. faecalis Tc^r (L) ATCC9790r/Tell.); assay: susceptibility testing MIC/MLC, drug alone; type: cell-based
# E. faecalis (Class M) = conditions: result in words
# [7] = tested on: E. coli Tc^s (MI 308-226); assay: susceptibility testing MIC/MLC, drug alone; type: cell-based; conditions: for MLC: kills 99.9%
# S. aureus Tc^r (RN4250) = type: cell-based
# [8] = tested on: tetracycline resistant (Class A) E. coli (strain D1-299); conditions: in combination with tetracycline
# E. coli ML308 = assay: susceptibility of tetracycline susceptible strains (MIC), C5 esters; type: cell-based; conditions: E. coli ML308, susceptible strain, drug alone
# E. faecalis ATCC 9790 = assay: as above; type: cell-based; conditions: E. faecalis ATCC 9790, susceptible strain, drug alone
# S. aureus 450 = assay: as above; type: cell-based; conditions: S. aureus 450, susceptible strain, drug alone
# E. faecalis 211 (Tet M) = assay: MIC/MLC chart, analog with and without doxycycline; type: cell-based
# E. coli DI-299 (Tet A) = assay: MIC/MLC chart, analog with and without doxycycline; type: cell-based; design: key to growth/killing, Analog + Doxy / growth/killing, Doxy Control / growth/killing, Analog Control / growth in MIC/MLC chart: +=growth; 0=no growth (MIC); ↓=killing; ? =99.9% killing (MLC); □=no growth, but no microbiologic testing;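 further: bacterial growth inhibition and killing in broth, each agent tested alone or combined with doxycycline across two-fold serial dilutions, overnight incubation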
# [9] = Tc^r (L) ATCC9790r/Tell.), drug alone
# [10] = Tc^r (L) ATCC9790r/Tell.), drug alone, kills 99.9%
# [11] = Tc^r(RN4250), drug alone, kills 99.9%
# [12] = E. faecalis bearing the Tet L determinant
# [13] = Analog Control: analog alone .195 μg/ml
# [14] = analog .195 μg/ml + doxycycline 1.56 μg/ml
# [15] = analog .195 μg/ml + doxycycline 3.12 μg/ml
# [16] = analog .195 μg/ml + doxycycline 6.25 μg/ml
smiles,measurement,setting,value
"CN(C)C1C(O)=C(C(N)=O)C(=O)C2(O)C(O)=C3C(=O)c4c(O)cccc4C(CSC4CCCC4)C3C(O)C12 (stereo not drawn) [Cyclopentyl, 13-cyclopentylthio-5-hydroxy-6-α-deoxy-tetracycline]",Ki,efflux protein,367 nM
same,MIC,[1],1 ± 0.25 µg
same,combined dose of the two drugs to achieve MLC,[2],≤ 6 µg/mL
same,MIC,[3],80 ± 40 µg
same,MLC,[3],100 ± 60 µg
same,MIC,[4],40 ± 0.25 µg
same,MLC,[4],80 µg
same,MIC,[5],3 ± 1 µg
same,MLC,[5],>16 µg
same,MIC,[6]; [9],1 ± 0.5 µg
same,MLC,[6]; [10],18 ± 2 µg
same,synergistic activity with tetracycline,E. faecalis (Class M),"little, if any synergistic activity"
same,MIC,"[7]; Tc^s (MI 308-226), drug alone",20 µg
same,MLC,"[7]; Tc^s (MI 308-226), drug alone",60 µg
same,MIC,"S. aureus Tc^r (RN4250); Tc^r(RN4250), drug alone",2 ± 0.25 µg
same,MLC,S. aureus Tc^r (RN4250); [11],6 ± 2 µg
same,MLC,S. aureus Tc^r (RN4250); resistant S. aureus,6 ± 2 µg/mL
same,concentrations of analogue and tetracycline that inhibited growth,[8],≤ 5 μg/ml
"CCSCC1c2cccc(O)c2C(=O)C2=C(O)C3(O)C(=O)C(C(N)=O)=C(O)C(N(C)C)C3CC21 (stereo not shown) [Ethyl, 6-deoxy-13-(ethylmercapto) tetracycline]",MIC,[1],1 ± 0.5 µg
same,MIC,[3],36 ± 16 µg
same,MLC,[3],50 ± 10 µg
same,MIC,[4],14 ± 4 µg
same,MLC,[4],45 ± 5 µg
same,MIC,[5],25 ± 5 µg
same,MIC,[6]; [9],4 ± 1 µg
same,MIC,"[7]; Tc^s (MI 308-226), drug alone",5 ± 0.25 µg
same,MLC,"[7]; Tc^s (MI 308-226), drug alone",50 µg
same,MIC,[7]; susceptible E. coli,5 µg/mL
same,concentrations of analogue and tetracycline that inhibited growth,[8],≤ 5 μg/ml
"CN(C)C1C(O)=C(C(N)=O)C(=O)C2(O)C(O)=C3C(=O)c4c(O)cccc4C(CSCc4ccccc4)C3C(O)C12 (stereo not shown) [Benzyl, 6-deoxy-13-(benzylmercapto) tetracycline]",Ki,efflux protein,1590 nM
same,MIC,[1],0.5 ± 0.25 µg
same,combined dose of the two drugs to achieve MLC,[2],≤ 6 µg/mL
same,MIC,[3],30 ± 0.25 µg
same,MLC,[3],90 ± 10 µg
same,MIC,[4],45 ± 20 µg
same,MLC,[4],150 ± 50 µg
same,MIC,[5],3.5 ± 1 µg
same,MLC,[5],18 ± 2 µg
same,MLC,[6]; [12],8 ± 2 µg/mL
same,MIC,[6]; [9],0.75 ± 0.25 µg
same,MLC,[6]; [10],8 ± 2 µg
same,synergistic activity with tetracycline,E. faecalis (Class M),"little, if any synergistic activity"
same,MIC,"[7]; Tc^s (MI 308-226), drug alone",16 ± 5 µg
same,MLC,"[7]; Tc^s (MI 308-226), drug alone",25 ± 6 µg
same,MIC,"S. aureus Tc^r (RN4250); Tc^r(RN4250), drug alone",1 ± 0.25 µg
same,MLC,S. aureus Tc^r (RN4250); [11],10 ± 4 µg
"CCCSCC1c2cccc(O)c2C(=O)C2=C(O)C3(O)C(=O)C(C(N)=O)=C(O)C(N(C)C)C3C(OC(=O)CC)C21 (stereo not shown) [Cmpd 8, 13-propylthio-5-proprionate-6-deoxy-tetracycline]",MIC,E. coli ML308,20 µg/mL
same,MIC,E. faecalis ATCC 9790,2.5 µg/mL
same,MIC,S. aureus 450,.3 µg/mL
CN(C)C1C(O)=C(C(N)=O)C(=O)C2(O)C(O)=C3C(=O)c4c(O)cccc4C(CSC4CCCCC4)C3C(O)C12 (stereo not shown) [Cyclohexyl],Ki,efflux protein,716 nM
same,MIC,[1],1.25 ± 0.25 µg
same,combined dose of the two drugs to achieve MLC,[2],≤ 6 µg/mL
same,MIC,[4],100 ± 0.26 µg
same,MLC,[4],>200 µg
same,MIC,[5],2.5 ± 0.5 µg
same,MLC,[5],10 ± 0.25 µg
same,MLC,[6]; [12],8 ± 2 µg/mL
same,MIC,[6]; [9],1.5 ± 0.5 µg
same,MLC,[6]; [10],8 ± 2 µg
same,synergistic activity with tetracycline,E. faecalis (Class M),"little, if any synergistic activity"
same,MIC,"[7]; Tc^s (MI 308-226), drug alone",60 ± 10 µg
same,MLC,"[7]; Tc^s (MI 308-226), drug alone",120 µg
same,MIC,"S. aureus Tc^r (RN4250); Tc^r(RN4250), drug alone",1.5 ± 0.5 µg
same,MLC,S. aureus Tc^r (RN4250); [11],10 ± 4 µg
same,concentrations of analogue and tetracycline that inhibited growth,[8],≤ 5 μg/ml
"CCC(=O)OC1C2C(=C(O)C3(O)C(=O)C(C(N)=O)=C(O)C(N(C)C)C13)C(=O)c1c(O)cccc1C2CSC1CCCC1 (stereo not shown) [Cmpd 5, 13-cyclopentylthio-5-proprionate-6-deoxy tetracycline]",MIC,E. coli ML308,20 µg/mL
same,growth in MIC/MLC chart,E. faecalis 211 (Tet M); [13],+
same,growth in MIC/MLC chart,E. faecalis 211 (Tet M); [14],+
same,growth in MIC/MLC chart,E. faecalis 211 (Tet M); [15],+
same,growth in MIC/MLC chart,E. faecalis 211 (Tet M); [16],+
same,MIC,E. faecalis ATCC 9790,.4 µg/mL
same,growth in MIC/MLC chart,E. coli DI-299 (Tet A); Analog Control: analog alone 1.56 μg/ml,+
same,growth in MIC/MLC chart,E. coli DI-299 (Tet A); Analog Control: analog alone 3.12 μg/ml,+
same,growth in MIC/MLC chart,E. coli DI-299 (Tet A); Analog Control: analog alone 6.25 μg/ml,+
same,growth in MIC/MLC chart,E. coli DI-299 (Tet A); Analog Control: analog alone 12.5 μg/ml,+
same,growth in MIC/MLC chart,E. coli DI-299 (Tet A); Analog Control: analog alone 25.0 μg/ml,+
same,growth in MIC/MLC chart,E. coli DI-299 (Tet A); Analog Control: analog alone 50.00 μg/ml,+
same,growth in MIC/MLC chart,E. coli DI-299 (Tet A); [13],+
same,growth in MIC/MLC chart,E. coli DI-299 (Tet A); Analog Control: analog alone .39 μg/ml,+
same,growth in MIC/MLC chart,E. coli DI-299 (Tet A); Analog Control: analog alone .78 μg/ml,+
same,growth in MIC/MLC chart,E. coli DI-299 (Tet A); analog 1.56 μg/ml + doxycycline 1.55 μg/ml,+
same,growth in MIC/MLC chart,E. coli DI-299 (Tet A); analog 1.56 μg/ml + doxycycline 3.1 μg/ml,+
same,growth in MIC/MLC chart,E. coli DI-299 (Tet A); analog 1.56 μg/ml + doxycycline 6.2 μg/ml,+
same,growth in MIC/MLC chart,E. coli DI-299 (Tet A); analog 3.12 μg/ml + doxycycline 1.53 μg/ml,+
same,growth in MIC/MLC chart,E. coli DI-299 (Tet A); analog 3.12 μg/ml + doxycycline 3.05 μg/ml,+
same,growth in MIC/MLC chart,E. coli DI-299 (Tet A); analog 3.12 μg/ml + doxycycline 6.1 μg/ml,+
same,growth in MIC/MLC chart,E. coli DI-299 (Tet A); analog 6.25 μg/ml + doxycycline 3.0 μg/ml,+
same,growth in MIC/MLC chart,E. coli DI-299 (Tet A); analog 6.25 μg/ml + doxycycline […],+
same,growth in MIC/MLC chart,E. coli DI-299 (Tet A); analog 12.5 μg/ml + doxycycline 2.8 μg/ml,+
same,growth in MIC/MLC chart,E. coli DI-299 (Tet A); analog 12.5 μg/ml + doxycycline […],+
same,growth in MIC/MLC chart,E. coli DI-299 (Tet A); analog 25 μg/ml + doxycycline 2.4 μg/ml,+
same,growth in MIC/MLC chart,E. coli DI-299 (Tet A); analog 25 μg/ml + doxycycline […],+
same,growth in MIC/MLC chart,E. coli DI-299 (Tet A); analog 50 μg/ml + doxycycline 1.56 μg/ml,+
same,growth in MIC/MLC chart,E. coli DI-299 (Tet A); analog 50 μg/ml + doxycycline .78 μg/ml,+
same,growth in MIC/MLC chart,E. coli DI-299 (Tet A); [14],+
same,growth in MIC/MLC chart,E. coli DI-299 (Tet A); [15],+
same,growth in MIC/MLC chart,E. coli DI-299 (Tet A); [16],+
same,growth in MIC/MLC chart,E. coli DI-299 (Tet A); analog .195 μg/ml + doxycycline 12.5 μg/ml,+
same,growth in MIC/MLC chart,E. coli DI-299 (Tet A); analog .195 μg/ml + doxycycline 25.0 μg/ml,+
same,growth in MIC/MLC chart,E. coli DI-299 (Tet A); analog .39 μg/ml + doxycycline 1.56 μg/ml,+
same,growth in MIC/MLC chart,E. coli DI-299 (Tet A); analog .39 μg/ml + doxycycline 3.12 μg/ml,+
same,growth in MIC/MLC chart,E. coli DI-299 (Tet A); analog .39 μg/ml + doxycycline 6.25 μg/ml,+
same,growth in MIC/MLC chart,E. coli DI-299 (Tet A); analog .39 μg/ml + doxycycline 12.5 μg/ml,+
same,growth in MIC/MLC chart,E. coli DI-299 (Tet A); analog .39 μg/ml + doxycycline 24.9 μg/ml,↓
same,growth in MIC/MLC chart,E. coli DI-299 (Tet A); analog .78 μg/ml + doxycycline 1.56 μg/ml,+
same,growth in MIC/MLC chart,E. coli DI-299 (Tet A); analog .78 μg/ml + doxycycline 3.12 μg/ml,+
same,growth in MIC/MLC chart,E. coli DI-299 (Tet A); analog .78 μg/ml + doxycycline 6.23 μg/ml,+
same,MLC of analog in combination,E. coli DI-299 (Tet A); with 5.9 μg/ml of doxycycline (Chart 8A),6.25 μg/ml
same,MIC,S. aureus 450,.4 µg/mL
